From US20220306695A1, “COMPSTATIN ANALOGUES AND THEIR MEDICAL USES” (priority 2019, published 2022)
Positions of bridges follow the written chain, without caps; N, C: chain ends. Non-standard residues stand in square brackets, D forms with d. Residues, ends and D or L forms follow the SMILES beside them. Trp(1-Me) = Cn1cc(C[C@H](N)C(=O)O)c2ccccc21; Sar = CNCC(=O)O

How the values were obtained:
[1] = system: classical complement pathway; assay: In vitro haemolysis assay (inhibition of classical complement pathway); assay type: cell-based, human; conditions: Table 3; human serum, sensitized sheep red blood cells; read-out: IC50[nM], in vitro analysis of inhibition of hemolysis
How it was run: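 Serially diluted compound (9 points) was preincubated 15 min at room temperature with diluted human serum, titrated per batch to give 70-90% maximal haemolysis, in Tris/casein buffer pH 7.4 with Mg2+/Ca2+. Antibody-sensitized sheep erythrocytes were then added for 30 min at 37° C, and the reaction was stopped with EDTA. Haemolysis was read at A405, with IC50 from 4PL fit.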

[2] = Solubility test at 10 mg/mL (visual inspection and light scattering); assay type: physicochemical; conditions: for Solubility, Condition 1 Acetate pH 4: 10 mg/mL compound in 100 mM acetate pH 4; for Solubility, Condition 2 Acetate pH 5: 10 mg/mL compound in 100 mM acetate pH 5; for Solubility, Condition 3 Phosphate pH 6: 10 mg/mL compound in 100 mM phosphate pH 6; for Solubility, Condition 4 Phosphate pH 7: 10 mg/mL compound in 100 mM phosphate pH 7; for Solubility, Condition 5 Phosphate pH 7.5: 10 mg/mL compound in 100 mM phosphate pH 7.5

Structure (SMILES) | IC50 [1] | Solubility, Condition 1 Acetate pH 4 [2] | Solubility, Condition 2 Acetate pH 5 [2] | Solubility, Condition 3 Phosphate pH 6 [2] | Solubility, Condition 4 Phosphate pH 7 [2] | Solubility, Condition 5 Phosphate pH 7.5 [2]
CC[C@H](C)[C@@H]1NC(=O)[C@@H](NC(=O)[C@H](Cc2ccccc2)NC(=O)[C@H](CCC(=O)O)NC(=O)[C@H](CO)NC(C)=O)CSSC[C@@H](C(=O)N[C@H](C(=O)NCC(=O)N[C@@H](C)C(=O)N[C@@H](CCC(=O)O)C(=O)N[C@@H](CO)C(N)=O)[C@@H](C)O)NC(=O)[C@H](CCCNC(=N)N)NC(=O)[C@H](Cc2c[nH]cn2)NC(=O)[C@H](CCC(=O)O)NC(=O)CNC(=O)[C@H](Cc2c[nH]c3ccccc23)NC(=O)[C@H](CC(=O)O)NC(=O)[C@H](CCC(N)=O)NC(=O)[C@H](Cc2cn(C)c3ccccc23)NC1=O [Compound 67] (Ac-SEFCI[Trp(1-Me)]QDWGEHRCTGAES-NH2; disulfide 4-14) | < 100 nM | − (denotes lack of solubility at the given condition, as UV absorbance at 340 nm exceeds 0.1 AU and/or it is visibly turbid or contains particles.) | − (denotes lack of solubility at the given condition, as UV absorbance at 340 nm exceeds 0.1 AU and/or it is visibly turbid or contains particles.) | + (denotes solubility at the given condition, as determined by UV absorbance being less than 0.1 AU at 340 nm and the sample being clear when manually inspected.) | + (denotes solubility at the given condition, as determined by UV absorbance being less than 0.1 AU at 340 nm and the sample being clear when manually inspected.) | + (denotes solubility at the given condition, as determined by UV absorbance being less than 0.1 AU at 340 nm and the sample being clear when manually inspected.)
CC[C@H](C)[C@@H]1NC(=O)[C@@H](NC(=O)[C@H](Cc2ccc(O)cc2)NC(C)=O)CSSC[C@@H](C(=O)N[C@H](C(=O)N[C@@H](CCC(=O)O)C(=O)N[C@@H](C)C(=O)NCC(=O)N[C@@H](CO)C(N)=O)[C@@H](C)O)NC(=O)[C@H](CCCNC(=N)N)NC(=O)[C@H](Cc2c[nH]cn2)NC(=O)[C@H](CCC(=O)O)NC(=O)CNC(=O)[C@H](Cc2c[nH]c3ccccc23)NC(=O)[C@H](CC(=O)O)NC(=O)[C@H](CCC(N)=O)NC(=O)[C@H](Cc2cn(C)c3ccccc23)NC1=O [Compound 68] (Ac-YCI[Trp(1-Me)]QDWGEHRCTEAGS-NH2; disulfide 2-12) | < 100 nM | − (denotes lack of solubility at the given condition, as UV absorbance at 340 nm exceeds 0.1 AU and/or it is visibly turbid or contains particles.) | − (denotes lack of solubility at the given condition, as UV absorbance at 340 nm exceeds 0.1 AU and/or it is visibly turbid or contains particles.) | + (denotes solubility at the given condition, as determined by UV absorbance being less than 0.1 AU at 340 nm and the sample being clear when manually inspected.) | + (denotes solubility at the given condition, as determined by UV absorbance being less than 0.1 AU at 340 nm and the sample being clear when manually inspected.) | + (denotes solubility at the given condition, as determined by UV absorbance being less than 0.1 AU at 340 nm and the sample being clear when manually inspected.)
CC[C@H](C)[C@@H]1NC(=O)[C@@H](NC(=O)[C@H](Cc2ccccc2)NC(C)=O)CSSC[C@@H](C(=O)N[C@H](C(=O)NCC(=O)N[C@@H](C)C(=O)N[C@@H](CCC(=O)O)C(=O)N[C@@H](CO)C(N)=O)[C@@H](C)O)NC(=O)[C@H](CCCNC(=N)N)NC(=O)[C@H](Cc2c[nH]cn2)NC(=O)[C@H](CCC(=O)O)NC(=O)CN(C)C(=O)[C@H](Cc2c[nH]c3ccccc23)NC(=O)[C@H](CC(=O)O)NC(=O)[C@H](CCC(N)=O)NC(=O)[C@H](Cc2cn(C)c3ccccc23)NC1=O [Compound 72, Ac-FC(1)I[1-Me-Trp]QDW[Sar]EHRC(1)TGAES-NH2] (Ac-FCI[Trp(1-Me)]QDW[Sar]EHRCTGAES-NH2; disulfide 2-12) | < 100 nM | − (denotes lack of solubility at the given condition, as UV absorbance at 340 nm exceeds 0.1 AU and/or it is visibly turbid or contains particles.) | − (denotes lack of solubility at the given condition, as UV absorbance at 340 nm exceeds 0.1 AU and/or it is visibly turbid or contains particles.) | + (denotes solubility at the given condition, as determined by UV absorbance being less than 0.1 AU at 340 nm and the sample being clear when manually inspected.) | + (denotes solubility at the given condition, as determined by UV absorbance being less than 0.1 AU at 340 nm and the sample being clear when manually inspected.) | + (denotes solubility at the given condition, as determined by UV absorbance being less than 0.1 AU at 340 nm and the sample being clear when manually inspected.)
CC[C@H](C)[C@@H]1NC(=O)[C@@H](NC(=O)[C@H](Cc2ccccc2)NC(=O)[C@H](N)Cc2ccc(O)cc2)CSSC[C@@H](C(=O)N[C@H](C(=O)NCC(=O)N[C@@H](C)C(=O)N[C@@H](CCC(=O)O)C(=O)N[C@@H](CO)C(N)=O)[C@@H](C)O)NC(=O)[C@H](CCCNC(=N)N)NC(=O)[C@H](Cc2c[nH]cn2)NC(=O)[C@H](CCC(=O)O)NC(=O)CN(C)C(=O)[C@H](Cc2c[nH]c3ccccc23)NC(=O)[C@H](CC(=O)O)NC(=O)[C@H](CCC(N)=O)NC(=O)[C@H](Cc2cn(C)c3ccccc23)NC1=O [Compound 73, H-{d}YFC(1)I[1-Me-Trp]QDW[Sar]EHRC(1)TGAES-NH2] (H-[dY]FCI[Trp(1-Me)]QDW[Sar]EHRCTGAES-NH2; disulfide 3-13) | < 100 nM | + (denotes solubility at the given condition, as determined by UV absorbance being less than 0.1 AU at 340 nm and the sample being clear when manually inspected.) | − (denotes lack of solubility at the given condition, as UV absorbance at 340 nm exceeds 0.1 AU and/or it is visibly turbid or contains particles.) | − (denotes lack of solubility at the given condition, as UV absorbance at 340 nm exceeds 0.1 AU and/or it is visibly turbid or contains particles.) | + (denotes solubility at the given condition, as determined by UV absorbance being less than 0.1 AU at 340 nm and the sample being clear when manually inspected.) | + (denotes solubility at the given condition, as determined by UV absorbance being less than 0.1 AU at 340 nm and the sample being clear when manually inspected.)
